The values below come from US8530493B2, “Indolopyridines as Eg5 kinesin modulators” (4SC AG, priority 2006, dated 2013).

What all share (type): cell-based
In assay [1] the test system is RKO p27 or p21 uninduced (proliferating) colon adenocarcinoma cells. The assay can be described thus: Alamar Blue cell viability assay, RKO p27 or p21 uninduced (proliferating). The conditions noted are these: Homo sapiens, RKOp27, 72 h, Table B2, anti-proliferative/cytotoxic activity, read-out: −log EC50 RKO p27 or p21 uninduced (proliferating) (converted). The procedure: The anti-proliferative/cytotoxic activity of the compounds described herein can be tested on subclones of RKO human colon adenocarcinoma cells (Schmidt et al., Oncogene 19, 2423-2429; 2000) using the Alamar Blue cell viability assay (described in O'Brien et al. Eur J Biochem 267, 5421-5426, 2000). The compounds are dissolved as 10 mM solutions in DMSO and subsequently diluted in semi-logarithmic steps. DMSO dilutions are further diluted 1:100 into Dulbecco's modified Eagle's medium (DMEM) containing 10% fetal calf serum to a final concentration twice as much as the final concentration in the test. RKO subclones are seeded into 96 well flat bottom plates at a density of 4000 cells per well in a volume of 50 μl per well. 24 hours after seeding the 50 μl each of the compound dilutions in DMEM medium are added into each well of the 96 well plate. Each compound dilution is tested as triplicates. Wells containing untreated control cells are filled with 50 μl DMEM medium containing 1% DMSO. The cells are then incubated with the substances for 72 hours at 37° C. in a humidified atmosphere containing 5% carbon dioxide. To determine the viability of the cells, 10 μl of an Alamar Blue solution (Biosource) are added and the fluorescence is measured at an extinction of 544 nm and an emission of 590 nm. For the calculation of the cell viability the emission value from untreated cells is set as 100% viability and the emission rates of treated cells are set in relation to the values of untreated cells. Viabilities are expressed as % values. The Graphpad Prism program is used for the calculation of EC50 values for anti-proliferative/cytotoxic activity out of the obtained dose-response curves.
(§1) To determine the cell cycle specific mode of action, subclones of RKO colon adenocarcinoma cells (RKOp21 or RKOp27 as described by Schmidt et al. in Oncogene 19, 2423-2429; 2000) are seeded into 96 well flat bottom plates at a density of 16000 cells per well in a volume of 50 μl per well in DMEM growth medium with 10% FCS containing 10 μM Ponasterone A. 24 hours after seeding the 50 μl each of the compound dilutions in DMEM medium are added into each well of the 96-well plate. Each compound dilution is tested as triplicates. Wells containing untreated control cells are filled with 50 μl DMEM medium containing 1% DMSO. The cells are then incubated with the substances for 72 hours at 37° C. in a humidified atmosphere containing 5% carbon dioxide. To determine the viability of the cells, 10 μl of an Alamar Blue solution (Biosource) are added and the fluorescence is measured at an extinction of 544 nm and an emission of 590 nm. For the calculation of the cell viability the emission value from untreated cells is set as 100% viability and the emission rates of treated cells are set in relation to the values of untreated cells. Viabilities are expressed as % values. The Graphpad Prism program (GraphPad Software, Inc) is used for the calculation of EC50 values out of the obtained dose-response curves. Viability is compared of proliferating cells grown in the absence of the inducer Ponasterone A, versus viability of cells arrested by the expression of ectopic p27Kip1 induced by Ponasterone A.
(§2) Representative values for anti-proliferation/cytotoxicity [measured as −log EC50 (mol/l)] determined in the aforementioned assays follow from the following tables B1, B2 and B3, in which the numbers of the compounds correspond to the numbers of the examples.
In general terms: The colour change of resazurin is a common sign of viable cells or microbes.

Assay [2] relates to RKO p27 or p21 induced (arrested) colon adenocarcinoma cells. The experiment in a line: Alamar Blue cell viability assay, RKO p27 or p21 induced (arrested). The conditions noted are these: Homo sapiens, RKOp27, Table B2, cells arrested by Ponasterone A, 72 hours, read-out: −log EC50 RKO p27 or p21 induced (arrested) (converted). As to the method: as §1, §2
For assay [3], the system named is RKO p21 uninduced (proliferating) colon adenocarcinoma cells. The experiment in a line: Alamar Blue cell viability assay, RKO p21 uninduced (proliferating). The conditions noted are these: Homo sapiens, Table B3, anti-proliferative/cytotoxic activity, 72 hours, read-out: −log EC50 RKO p21 uninduced (proliferating) (converted). The method, boiled down:
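RKO p21 or p27 subclones grown without Ponasterone A, i.e. proliferating, exposed 24 h after seeding to semi-log compound dilutions in DMEM/10% FCS (1% DMSO controls) for 72 h at 37° C. Alamar Blue fluorescence (544/590 nm) read relative to untreated cells; EC50 from dose-response curves, given as −log EC50 (mol/l).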

Usually EC50 stands for the concentration giving half of the maximal effect.

Bounds are passed on as bounds.

As to `COc1ccc2[nH]c3c(c2c1)C[C@@]1(C)C(=O)N(CCCN2CCCC2)C(=O)N1[C@@H]3c1cccc(O)c1` (racemic) [Example 96, (3aSR,10RS)-10-(3-Hydroxy-phenyl)-6-methoxy-3a-methyl-2-(3-pyrrolidin-1-yl-propyl)-3a,4,9,10-tetrahydro-2,9,10a-triaza-cyclopenta[b]fluorene-1,3-dione], the EC50 in assay [1] is no more than 0.0398 µM; in assay [2], no less than 3.16 µM.
In the case of `COc1ccc2[nH]c3c(c2c1)C[C@@]1(C)C(=O)N(CCN(C)C(C)C)C(=O)N1[C@@H]3c1cccc(O)c1` (racemic) [Example 70, (3aSR,10RS)-10-(3-Hydroxy-phenyl)-2-[2-(isopropyl-methyl-amino)-ethyl]-6-methoxy-3a-methyl-3a,4,9,10-tetrahydro-2,9,10a-triaza-cyclopenta[b]fluorene-1,3-dione], the concentration for a half-maximal effect (EC50) in assay [1] was no more than 0.0398 µM; in assay [2], no less than 3.16 µM.
The like results for `COc1ccc2[nH]c3c(c2c1)C[C@@]1(C)C(=O)N(CCCNCC(C)C)C(=O)N1[C@@H]3c1cccc(O)c1` (racemic) [Example 92, (3aSR,10RS)-10-(3-Hydroxy-phenyl)-2-(3-isobutylamino-propyl)-6-methoxy-3a-methyl-3a,4,9,10-tetrahydro-2,9,10a-triaza-cyclopenta[b]fluorene-1,3-dione] were, in that order, no more than 0.0398 µM and no less than 3.16 µM.
Turning to `C#CCNCCCN1C(=O)N2[C@H](c3cccc(O)c3)c3[nH]c4ccc(OC)cc4c3C[C@@]2(C)C1=O` (racemic) [Example 147, (3aSR,10RS)-10-(3-Hydroxy-phenyl)-6-methoxy-3a-methyl-2-(3-prop-2-ynylamino-propyl)-3a,4,9,10-tetrahydro-2,9,10a-triaza-cyclopenta[b]fluorene-1,3-dione], the EC50 in assay [1] was no more than 0.0398 µM; in assay [2], no less than 0.316 µM.
Consider `CC(C)N(C)CCCN1C(=O)N2[C@H](c3cccc(O)c3)c3[nH]c4ccc(Cl)cc4c3C[C@@]2(C)C1=O` (racemic) [Example 133, (3aSR,10RS)-6-Chloro-10-(3-hydroxy-phenyl)-2-[3-(isopropyl-methyl-amino)-propyl]-3a-methyl-3a,4,9,10-tetrahydro-2,9,10a-triaza-cyclopenta[b]fluorene-1,3-dione], for which the EC50 in assay [1] is no more than 0.0398 µM; in assay [2] it was no less than 0.316 µM.
The like results for `CCN(CCOC)CCN1C(=O)N2[C@H](c3cccc(O)c3)c3[nH]c4ccc(Cl)cc4c3C[C@@]2(C)C1=O` (racemic) [Example 121, (3aSR,10RS)-6-Chloro-2-{2-[ethyl-(2-methoxy-ethyl)-amino]-ethyl}-10-(3-hydroxy-phenyl)-3a-methyl-3a,4,9,10-tetrahydro-2,9,10a-triaza-cyclopenta[b]fluorene-1,3-dione] were, in that order, 0.0398 to 0.251 µM and no less than 0.316 µM.
The like results for `C#CC(C)NCCCN1C(=O)N2[C@H](c3cccc(O)c3)c3[nH]c4ccc(Cl)cc4c3C[C@@]2(C)C1=O` (mixture of isomers) [Example 136, (3aSR,10RS)-6-Chloro-10-(3-hydroxy-phenyl)-3a-methyl-2-[3-((R and S)1-methyl-prop-2-ynylamino)-propyl]-3a,4,9,10-tetrahydro-2,9,10a-triaza-cyclopenta[b]fluorene-1,3-dione] were, in that order, no more than 0.0398 µM and no less than 3.16 µM.
The like results for `COc1ccc2[nH]c3c(c2c1)C[C@@]1(C)C(=O)N(CCCN(C)CCO)C(=O)N1[C@@H]3c1cccc(O)c1` (racemic) [Example 143, (3aSR,10RS)-2-{3[(2-Hydroxy-ethyl)-methyl-amino]-propyl}-10-(3-hydroxy-phenyl)-6-methoxy-3a-methyl-3a,4,9,10-tetrahydro-2,9,10a-triaza-cyclopenta[b]fluorene-1,3-dione] were, in that order, no more than 0.0398 µM and no less than 0.316 µM.
Consider `CCN(CCO)CCCN1C(=O)N2[C@H](c3cccc(O)c3)c3[nH]c4ccc(OC)cc4c3C[C@@]2(C)C1=O` (racemic) [Example 89, (3aSR,10RS)-2-{3-[Ethyl-(2-hydroxy-ethyl)-amino]-propyl}-10-(3-hydroxy-phenyl)-6-methoxy-3a-methyl-3a,4,9,10-tetrahydro-2,9,10a-triaza-cyclopenta[b]fluorene-1,3-dione], for which the results for the EC50 in assay [1] and in assay [2] were no more than 0.0398 µM and no less than 3.16 µM, respectively.
The like results for `CC(=O)N1CCN(CCN2C(=O)N3[C@H](c4cccc(O)c4)c4[nH]c5ccc(Cl)cc5c4C[C@@]3(C)C2=O)CC1` (racemic) [Example 114, (3aSR,10RS)-2-[2-(4-Acetyl-piperazin-1-yl)-ethyl]-6-chloro-10-(3-hydroxy-phenyl)-3a-methyl-3a,4,9,10-tetrahydro-2,9,10a-triaza-cyclopenta[b]fluorene-1,3-dione] were, in that order, no more than 0.0398 µM and no less than 0.316 µM.
As for `CC(C)CNCCN1C(=O)N2[C@H](c3cccc(O)c3)c3[nH]c4ccc(Cl)cc4c3C[C@@]2(C)C1=O` (racemic) [Example 99, (3aSR,10RS)-6-Chloro-10-(3-hydroxy-phenyl)-2-(2-isobutylamino-ethyl)-3a-methyl-3a,4,9,10-tetrahydro-2,9,10a-triaza-cyclopenta[b]fluorene-1,3-dione], the EC50 in assay [1] is no more than 0.0398 µM; in assay [2], no less than 3.16 µM.
Turning to `C=CCN(C)CCN1C(=O)N2[C@H](c3cccc(O)c3)c3[nH]c4ccc(OC)cc4c3C[C@@]2(C)C1=O` (racemic) [Example 80, (3aSR,10RS)-2-[2-(Allyl-methyl-amino)-ethyl]-10-(3-hydroxy-phenyl)-6-methoxy-3a-methyl-3a,4,9,10-tetrahydro-2,9,10a-triaza-cyclopenta[b]fluorene-1,3-dione], the half-maximal effective concentration (EC50) in assay [1] was no more than 0.0398 µM; in assay [2] it was no less than 3.16 µM.
Regarding `C=CCNCCCN1C(=O)N2[C@H](c3cccc(O)c3)c3[nH]c4ccc(Cl)cc4c3C[C@@]2(C)C1=O` (racemic) [Example 139, (3aSR,10RS)-2-(3-Allylamino-propyl)-6-chloro-10-(3-hydroxy-phenyl)-3a-methyl-3a,4,9,10-tetrahydro-2,9,10a-triaza-cyclopenta[b]fluorene-1,3-dione], the values for the EC50 in assay [1] and in assay [2] were no more than 0.0398 µM and no less than 3.16 µM, respectively.
With `CCN(CCOC)CCN1C(=O)N2[C@H](c3cccc(O)c3)c3[nH]c4ccc(OC)cc4c3C[C@@]2(C)C1=O` (racemic) [Example 79, (3aSR,10RS)-2-[2-[Ethyl-(2-methoxy-ethyl)-amino]-ethyl}-10-(3-hydroxy-phenyl)-6-methoxy-3a-methyl-3a,4,9,10-tetrahydro-2,9,10a-triaza-cyclopenta[b]fluorene-1,3-dione], the EC50 was no more than 0.0398 µM in assay [1] and no less than 3.16 µM in assay [2].
Take `C=CCNCCCN1C(=O)N2[C@H](c3cccc(O)c3)c3[nH]c4ccc(OC)cc4c3C[C@@]2(C)C1=O` (racemic) [Example 146, (3aSR,10RS)-2-(3-Allylamino-propyl)-10-(3-hydroxy-phenyl)-6-methoxy-3a-methyl-3a,4,9,10-tetrahydro-2,9,10a-triaza-cyclopenta[b]fluorene-1,3-dione]: the EC50 in assay [1] is no more than 0.0398 µM; in assay [2], no less than 0.316 µM.
Consider `COc1cc2c3c([nH]c2cc1F)[C@@H](c1cccc(O)c1)N1C(=O)N(CCCNCCO)C(=O)[C@]1(C)C3` (racemic) [Example 305, (3aSR,10RS)-7-Fluoro-2-[3-(2-hydroxy-ethylamino)-propyl]-10-(3-hydroyx-phenyl)-6-methoxy-3a-methyl-3a,4,9,10-tetrahydro-2,9,10a-triaza-cyclopenta[b]fluorene-1,3-dione], for which the EC50 in assay [3] is 0.0398 to 0.251 µM.
